Measurements taken from patent US9675623B2, “Non-surgical method of treatment for cataract” (THE REGENTS OF THE UNIVERSITY OF MICHIGAN, priority 2012, dated 2017).
Where a chain is given by its changes, count along the chain named. “And” between values parts separate entries of the source, which are not always exact repeats. Identical values can stand only once.

Legend:
[1] = molecular target: T1, R120G cryAB (Homo sapiens, UniProt P02511, R120G); experiment: Differential scanning fluorimetry (DSF), shift of apparent Tm; assay type: binding; conditions: DSF with R120G cryAB; for ACTIVITY (shift in thermal stability at 100 μM): 100 μM compound
T1 sequence (P02511 1-175 R120G): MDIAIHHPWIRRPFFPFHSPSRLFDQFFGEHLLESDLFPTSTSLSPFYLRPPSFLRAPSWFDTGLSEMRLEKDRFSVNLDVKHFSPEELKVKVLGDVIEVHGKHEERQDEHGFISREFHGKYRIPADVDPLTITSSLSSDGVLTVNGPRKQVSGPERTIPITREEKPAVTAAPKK
Procedure: Differential scanning fluorimetry (DSF) was utilized to identify compounds that stabilize cryAB. In DSF experiments, the melting transition (Tm) of the protein target is measured in the presence of potential ligands (Cummings et al., J Biomol Screen 11, 854 (2006). DSF measures thermal unfolding of the target protein via the fluorescence of intrinsic tryptophans, or (more commonly) a dye, such as 1,8-anilinonapthalenesulfonic (bis-ANS) or Sypro Orange. Binding of a ligand adds free energy to the folded state or key intermediates, which limits unfolding and shifts the apparent Tm. These values are used to calculate the unfolding transition. When compounds bind to the target prior to heating, they stabilize against unfolding, shifting the ΔTm. […] (3).

[2] = molecular target: T1, R120G cryAB; experiment: Biolayer interferometry (Octet Red); assay type: binding; conditions: biotinylated cryAB on streptavidin-coated pins, equilibrium association data
Procedure: Measuring affinity for the test protein by biolayer interferometry (Octet Red) allows for the identification of false positives. Briefly, biotinylated cryAB is immobilized to streptavidin-coated pins and equilibrium association data across a hundred-fold concentration range is analyzed to generate the apparent KD. To control for nonspecific binding, the response of a biocytin-blocked pin is subtracted from each sensorgram.

[3] = molecular target: T1, R120G cryAB; experiment: Amyloid formation / aggregation measured by electron microscopy and visual inspection; assay type: biochemical
Procedure: To test this idea, R120G cryAB (15 μM) was treated with 5-cholesten-3b,25-diol or cholesterol (100 μM) and its ability to aggregate was measured by electron microscopy.

[4] = molecular target: T1, R120G cryAB; experiment: 15N HSQC NMR binding site mapping; conditions: 15N HSQC NMR chemical shifts
[5] = molecular target: T2, cryAB (Mus musculus, UniProt P23927, R120G); experiment: Excised eyes from R120G cryAB knock-in mice treated with compound; conditions: 100 μM, versus saline control
T2 construct: from tissue; host or cells: excised eyes of R120G cryAB knock-in mice
T2 sequence (P23927 1-175 R120G): T1 sequence (P02511 1-175 R120G) with P39S, S41A, F61I, T170A
Procedure: The R120G cryAB knock-in mouse is a clinically-acceptable model of aging-associated and hereditary cataract. The animal model develops severe cataracts within 20 weeks (Andley et al., PLoS One 6, e17671 (2011)). Excised eyes from these mice were treated with 5-cholesten-3b,25-diol (100 μM) or a saline control.

[6] = tested on: R120G cryAB knock-in mice; experiment: Eye drops to live R120G cryAB knock-in mice; slit lens illumination and GPC/light scattering of lens homogenates; assay type: in vivo, mouse; conditions: 5 mM in saline-cyclodextrin, eye dropper three times a week for two weeks
[7] = tested on: α-crystallin; experiment: Gel filtration (GPC) analysis of α-crystallin solubility, treated versus fellow untreated eye; assay type: in vivo, mice
Procedure: 5-cholesten-3b,25-diol formulated in a saline-cyclodextrin solution (5 mM cyclodextran; 5 mM 5-cholesten-3b,25-diol) was delivered by eye dropper three times a week for two weeks to live mice (n=15). Gel filtration analysis of α-crystallin solubility was conducted by processing samples as previously described by Andley et al. (PLoS ONE, 6:3, 1-13 (2011)). Briefly, degree of aggregation of α-crystallin was determined using gel permeation chromatography (GPC) with light scattering and refractive index (RI) measurements. All data were analyzed using SAS version 9.3 (SAS Institute; Cary, N.C.). To control for differences in assay sensitivity among animals, the area under the curve for α-crystallin in the drug treated eye was compared to the area under the curve generated from the fellow untreated eye and expressed as “percent” difference in area using the untreated eye as the denominator. The percent difference between treated and untreated eyes was compared using the Wilcoxon signed rank test for the null hypothesis of no difference. The association between age and percent difference was calculated using the Spearman rank correlation coefficient. Non-parametric statistical models were used to protect from departures from normality.

[8] = R120G cryAB 15 μM, compound 100 μM

C[C@H](CCCC(C)(C)O)[C@H]1CC[C@H]2[C@@H]3CC=C4C[C@@H](O)CC[C@]4(C)[C@H]3CC[C@]12C [5-cholesten-3b,25-diol]
ACTIVITY (shift in thermal stability at 100 μM) [1]: −2.0 °C | Kd [2]: 10.1 ± 4.4 µM | amyloid formation (electron microscopy) [3, 8]: dramatically suppressed amyloid formation | opacity of the R120G cryAB mixture (visual inspection) [3, 8]: reduced the opacity | aggregation of pre-formed R120G cryAB amyloids ([3]; pre-formed amyloids): reversed the aggregation | binding site on R120G cryAB [4]: binds a groove across the cryAB dimer interface | aggregation of cryAB [5]: significantly reduced the aggregation of cryAB | cryAB solubility [5]: improved cryAB solubility | cryAB solubility [6]: significantly improved cryAB solubility | lens transparency [6]: improved lens transparency | rescued cataract phenotypes (treated mice) [6]: 10/15 | Percent difference in area between untreated and treated eyes, Mean ([7]; Age 66 days): 177.2% | Percent difference in area between untreated and treated eyes, Median ([7]; Age 66 days): −20.2% | Percent difference in area between untreated and treated eyes, Mean ([7]; Age 79 days): 98.1% | Percent difference in area between untreated and treated eyes, Median ([7]; Age 79 days): 98.1% | Percent difference in area between untreated and treated eyes, Mean ([7]; Age 184 days): 61.4% | Percent difference in area between untreated and treated eyes, Median ([7]; Age 184 days): 61.4% | Percent difference in area between untreated and treated eyes, Mean ([7]; Age 192 days): 22.7% | Percent difference in area between untreated and treated eyes, Median ([7]; Age 192 days): 55.8% | Percent difference in area between untreated and treated eyes, Mean ([7]; Age 200 days): 38.7% | Percent difference in area between untreated and treated eyes, Median ([7]; Age 200 days): 31.8% | Percent difference in area between untreated and treated eyes, Mean ([7]; Age 266 days): 1376.3% | Percent difference in area between untreated and treated eyes, Median ([7]; Age 266 days): 679.0% | Percent difference in area between untreated and treated eyes, Mean ([7]; All ages): 381.2±974.6% and 381.2% | Percent difference in area between untreated and treated eyes, Median ([7]; All ages): 63.3% | area under the curve of α-crystallin, drug treated eyes versus fellow untreated eyes ([7]; eye drops 5 mM three times a week for two weeks, Wilcoxon signed rank): statistically significantly higher

CC(C)CCC[C@@H](C)[C@H]1CC[C@H]2[C@@H]3CC=C4C[C@@H](O)CC[C@]4(C)[C@H]3CC[C@]12C [5-cholesten-3b-ol]
ACTIVITY (shift in thermal stability at 100 μM) [1]: −1.1 °C

CC(C)CCC[C@@H](C)[C@H]1CC[C@H]2[C@@H]3CC[C@H]4C[C@@H](O)CC[C@]4(C)[C@H]3CC[C@]12C [5a-cholestan-3b-ol-6-one, (2R,5S,7S,15R)-5-hydroxy-2,15-dimethyl-14-(6-methylheptan-2-yl)tetracyclo [8.7.0.0^{2,7}.0^{11,15}] heptadecan-8-one]
ACTIVITY (shift in thermal stability at 100 μM) [1]: −3.0 °C

CC(C)CCC[C@@H](C)[C@H]1CC[C@H]2[C@@H]3CC=C4C[C@@H](O)CC[C@]4(C)[C@H]3CC[C@]12C [cholesterol, reference compound]
activity in DSF ([1]; focused sterol collection): inactive | amyloid formation (electron microscopy) [3, 8]: not

C[C@]12CCC(=O)C[C@H]1CC[C@@H]1[C@@H]2CC[C@]2(C)[C@@H](O)CC[C@@H]12 [etiocholan-17b-ol-3-one]
ACTIVITY (shift in thermal stability at 100 μM) [1]: +1.7 °C
